For four compounds, IC50 results are on record in PMC7990224 (PLoS Pathogens, 2021).

pIC50: −log10 of the molar value.

The test system of this experiment is SARS-CoV-2 GFP/ΔN trVLP. The experiment is classed as cell-based.
By pIC50 is commonly meant the negative decadic logarithm of the IC50, by convention in mol/L. As to `Cc1cccc(C)c1OCC(=O)N[C@@H](Cc1ccccc1)[C@@H](O)C[C@H](Cc1ccccc1)NC(=O)[C@H](C(C)C)N1CCCNC1=O` [Lopinavir], the negative-log IC50 (pIC50) was 5.06.

The compound `CC(C)c1nc(CN(C)C(=O)N[C@H](C(=O)N[C@@H](Cc2ccccc2)C[C@H](O)[C@H](Cc2ccccc2)NC(=O)OCc2cncs2)C(C)C)cs1` [Ritonavir] gave a pIC50 of 5.12.

Regarding GC376, the pIC50 was 5.35.

`CCC(CC)COC(=O)[C@H](C)N[P@](=O)(OC[C@H]1O[C@@](C#N)(c2ccc3c(N)ncnn23)[C@H](O)[C@@H]1O)Oc1ccccc1` [Remdesivir] gave a negative logarithm of the IC50 (pIC50) of 7.20.
